Source: ChEMBL document CHEMBL1201862, “PubChem BioAssay data set” (2004)
Calls of active or inactive are those of the source. The rule behind the calls is not given here.

Molecular target: T1, Exodeoxyribonuclease V (Escherichia coli (strain K12), UniProt P04993+P07648+P08394)
T1 sequence (P04993 whole entry): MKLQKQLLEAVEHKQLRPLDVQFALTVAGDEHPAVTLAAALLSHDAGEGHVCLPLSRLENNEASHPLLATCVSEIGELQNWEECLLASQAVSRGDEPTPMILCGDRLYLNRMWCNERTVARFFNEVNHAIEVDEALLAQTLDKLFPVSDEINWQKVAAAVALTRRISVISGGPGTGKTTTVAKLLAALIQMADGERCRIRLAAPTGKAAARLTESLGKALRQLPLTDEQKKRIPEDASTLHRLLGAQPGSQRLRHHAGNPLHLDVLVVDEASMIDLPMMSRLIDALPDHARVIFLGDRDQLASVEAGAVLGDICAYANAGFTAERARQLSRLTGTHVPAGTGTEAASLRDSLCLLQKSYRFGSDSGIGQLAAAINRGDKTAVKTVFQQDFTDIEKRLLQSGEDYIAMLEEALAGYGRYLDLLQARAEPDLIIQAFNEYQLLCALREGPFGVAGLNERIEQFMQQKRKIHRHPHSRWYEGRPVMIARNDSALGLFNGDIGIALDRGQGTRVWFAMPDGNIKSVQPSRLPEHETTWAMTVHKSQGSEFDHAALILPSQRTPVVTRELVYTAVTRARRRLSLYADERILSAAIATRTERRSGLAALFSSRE
T1 sequence (P07648 whole entry): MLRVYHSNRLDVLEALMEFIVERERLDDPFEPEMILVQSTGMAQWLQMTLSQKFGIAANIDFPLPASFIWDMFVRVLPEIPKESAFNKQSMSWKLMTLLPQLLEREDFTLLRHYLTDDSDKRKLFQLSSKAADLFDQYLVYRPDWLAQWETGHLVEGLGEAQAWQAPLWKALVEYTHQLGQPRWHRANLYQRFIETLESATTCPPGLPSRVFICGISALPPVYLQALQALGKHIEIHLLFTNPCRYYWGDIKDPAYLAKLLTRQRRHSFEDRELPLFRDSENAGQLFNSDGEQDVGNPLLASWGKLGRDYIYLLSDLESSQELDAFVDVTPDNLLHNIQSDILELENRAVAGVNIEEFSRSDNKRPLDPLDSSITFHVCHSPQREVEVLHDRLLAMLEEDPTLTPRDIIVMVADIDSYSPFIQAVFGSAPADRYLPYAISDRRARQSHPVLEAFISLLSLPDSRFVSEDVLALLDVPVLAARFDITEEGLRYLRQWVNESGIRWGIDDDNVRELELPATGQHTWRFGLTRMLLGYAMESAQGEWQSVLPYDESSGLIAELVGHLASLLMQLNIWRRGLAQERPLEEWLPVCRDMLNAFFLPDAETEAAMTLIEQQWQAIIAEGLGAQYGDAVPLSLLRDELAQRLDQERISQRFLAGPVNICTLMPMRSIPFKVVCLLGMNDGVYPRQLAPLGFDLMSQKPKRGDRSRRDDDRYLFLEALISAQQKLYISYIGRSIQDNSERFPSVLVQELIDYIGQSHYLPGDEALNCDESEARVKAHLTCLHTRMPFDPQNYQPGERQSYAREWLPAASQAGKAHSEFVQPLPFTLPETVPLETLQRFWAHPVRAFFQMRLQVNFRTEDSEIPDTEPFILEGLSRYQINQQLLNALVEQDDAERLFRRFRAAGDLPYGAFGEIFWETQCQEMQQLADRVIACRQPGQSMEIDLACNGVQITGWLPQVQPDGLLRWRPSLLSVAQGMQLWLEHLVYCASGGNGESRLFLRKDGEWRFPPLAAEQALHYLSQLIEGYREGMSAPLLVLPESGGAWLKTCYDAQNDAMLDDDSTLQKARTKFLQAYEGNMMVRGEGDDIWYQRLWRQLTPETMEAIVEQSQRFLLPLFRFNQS
T1 sequence (P08394 whole entry): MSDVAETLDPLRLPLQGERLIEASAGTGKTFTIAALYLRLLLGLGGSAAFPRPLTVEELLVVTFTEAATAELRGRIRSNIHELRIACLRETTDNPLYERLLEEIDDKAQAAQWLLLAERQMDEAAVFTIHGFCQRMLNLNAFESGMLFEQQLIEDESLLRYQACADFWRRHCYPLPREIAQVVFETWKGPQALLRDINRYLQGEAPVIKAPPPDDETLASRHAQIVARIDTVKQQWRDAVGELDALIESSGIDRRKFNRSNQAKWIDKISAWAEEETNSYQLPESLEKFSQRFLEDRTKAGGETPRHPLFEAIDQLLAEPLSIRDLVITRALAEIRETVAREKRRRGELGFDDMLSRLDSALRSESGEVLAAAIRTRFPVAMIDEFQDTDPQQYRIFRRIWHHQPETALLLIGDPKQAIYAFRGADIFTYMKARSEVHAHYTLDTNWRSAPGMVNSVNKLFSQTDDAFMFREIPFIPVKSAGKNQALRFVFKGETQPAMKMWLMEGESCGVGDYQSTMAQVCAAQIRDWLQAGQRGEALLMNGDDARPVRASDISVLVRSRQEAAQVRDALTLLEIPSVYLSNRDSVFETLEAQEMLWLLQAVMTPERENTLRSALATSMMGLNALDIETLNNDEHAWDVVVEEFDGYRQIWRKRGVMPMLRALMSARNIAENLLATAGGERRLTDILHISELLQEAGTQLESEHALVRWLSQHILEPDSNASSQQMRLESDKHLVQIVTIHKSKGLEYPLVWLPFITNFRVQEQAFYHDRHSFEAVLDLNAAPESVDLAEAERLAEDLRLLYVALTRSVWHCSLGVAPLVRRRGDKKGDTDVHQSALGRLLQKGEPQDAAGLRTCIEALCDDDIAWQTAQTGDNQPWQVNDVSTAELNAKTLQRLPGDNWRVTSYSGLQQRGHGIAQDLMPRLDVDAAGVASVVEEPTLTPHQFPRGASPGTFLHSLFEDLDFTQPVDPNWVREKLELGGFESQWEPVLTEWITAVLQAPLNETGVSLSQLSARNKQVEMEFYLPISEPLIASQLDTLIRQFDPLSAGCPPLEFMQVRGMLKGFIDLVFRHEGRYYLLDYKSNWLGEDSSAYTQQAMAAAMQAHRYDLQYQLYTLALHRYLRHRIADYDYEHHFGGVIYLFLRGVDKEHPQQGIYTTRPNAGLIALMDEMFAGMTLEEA
Test: E. coli RecBCD inhibitors, dose response, counter-screen for AddAB inhibitor project, absorbance, V66 E. coli, mutant T4 phage (AID 492957)
Format: functional, cell-based, Escherichia coli str. K-12 substr. MG1655

Row | SMILES | IC50
1 | CCCC(=O)NC(c1ccccc1OC)c1ccc2cccnc2c1O (configuration not stated) | > 119 µM (inactive)
2 | Cc1ccc2nc(/C(C#N)=C\c3ccc([N+](=O)[O-])o3)[nH]c2c1 | > 119 µM (inactive)
